Experimental data reported in US3954733A, “Naphthyridine-3-carboxamido-benzylpenicillins and salts thereof” (Sumitomo Chemical Company, Limited, priority 1973, dated 1976).
≈ marks a conversion by molar mass, not a printed value.

What was measured:
Assay in all cases: minimal inhibitory concentration, agar dilution method
Format in all cases: cell-based
Escherichia coli NIHJ = tested on: Escherichia coli NIHJ
Description: (§1) When determined according to the agar dilution method, the penicillins (I) afford the minimal inhibitory concentrations against test microorganisms as shown in Table 2.

Proteus miravilis GN2425 = tested on: Proteus miravilis GN2425
Proteus vulgaris HV19 = tested on: Proteus vulgaris HV19
[1] = tested on: Pseudomonas aeruginosa 104
Description: as §1

[2] = tested on: Staphylococcus aureus 209P
Description: as §1

SMILES | MIC (Escherichia coli NIHJ) [µg/mL] | MIC (Proteus miravilis GN2425) [µg/mL] | MIC (Proteus vulgaris HV19) [µg/mL] | MIC [1] [µg/mL] | MIC [2] [µg/mL]
CC1(C)S[C@@H]2[C@H](NC(=O)C(NC(=O)c3cnc4cccnc4c3O)c3ccc(O)cc3)C(=O)N2[C@H]1C(=O)O (mixture of isomers) [Example 2, DL-α-(4-hydroxy-1,5-naphthyridine-3-carboxamido)-p-hydroxybenzylpenicillin] | 3.13 | 3.13 | 0.025 | – | –
CCOC(=O)Oc1ccc(C(NC(=O)c2cnc3ccc(N(C)C)nc3c2O)C(=O)N[C@@H]2C(=O)N3[C@@H]2SC(C)(C)[C@@H]3C(=O)O)cc1 (mixture of isomers) [Example 3, DL-α-(4-hydroxy-6-dimethylamino-1,5-naphthyridine-3-carboxamido)-p-ethoxycarbonyloxybenzylpenicillin] | 1.56 | 1.56 | 0.1 | 3.13 | 1.56
CC1(C)S[C@@H]2[C@H](NC(=O)C(NC(=O)c3cnc4ccccc4c3O)c3ccc(O)cc3)C(=O)N2[C@H]1C(=O)O (mixture of isomers) [Example 6, DL-α-(4-hydroxyquinoline-3-carboxamido)-p-hydroxybenzylpenicillin] | 6.25 | 6.25 | 0.2 | 6.25 | 0.78
CC1(C)S[C@@H]2[C@H](NC(=O)C(C(=O)O)c3ccccc3)C(=O)N2[C@H]1C(=O)O (stereo partly drawn) [Carbenicillin, reference compound] | 12.5 (≈ 33 µM) | 0.78 (≈ 2.06 µM) | – | 50 to 100 (≈ 132 to 264 µM) | 0.78 (≈ 2.06 µM)
CC1(C)S[C@@H]2[C@H](NC(=O)[C@H](NC(=O)c3cnc4cccnc4c3O)c3ccc(O)cc3)C(=O)N2[C@H]1C(=O)O [Example 1, D-α-(4-hydroxy-1,5-naphthyridine-3-carboxamido)-p-hydroxybenzylpenicillin] | 1.56 (≈ 2.9 µM) | 1.56 (≈ 2.9 µM) | 0.025 (≈ 0.0465 µM) | 1.56 (≈ 2.9 µM) | 0.78 (≈ 1.45 µM)
CC(C)(C)C(=O)Oc1ccc([C@@H](NC(=O)c2cnc3ccccc3c2O)C(=O)N[C@@H]2C(=O)N3[C@@H]2SC(C)(C)[C@@H]3C(=O)O)cc1 [Example 4, D-α-(4-hydroxyquinoline-3-carboxamido)-p-pivaloyloxybenzylpenicillin] | 6.25 (≈ 10.1 µM) | 6.25 (≈ 10.1 µM) | 0.2 (≈ 0.322 µM) | 6.25 (≈ 10.1 µM) | 0.39 (≈ 0.628 µM)
CC1(C)S[C@@H]2[C@H](NC(=O)[C@H](NC(=O)c3nnc4ccccc4c3O)c3ccc(O)cc3)C(=O)N2[C@H]1C(=O)O [Example 8, D-α-(4-hydroxycinnoline-3-carboxamido)-p-hydroxybenzylpenicillin] | 12.5 (≈ 23.3 µM) | 12.5 (≈ 23.3 µM) | – | 12.5 (≈ 23.3 µM) | 0.78 (≈ 1.45 µM)
CCOC(=O)Oc1ccc([C@@H](NC(=O)c2cnc3cc(Cl)ccc3c2O)C(=O)N[C@@H]2C(=O)N3[C@@H]2SC(C)(C)[C@@H]3C(=O)O)cc1 [Example 10] | – | 0.78 (≈ 1.21 µM) | – | – | 0.39 (≈ 0.606 µM)
CC1(C)S[C@@H]2[C@H](NC(=O)[C@H](NC(=O)c3cnc4cc(C(F)(F)F)ccc4c3O)c3ccc(O)cc3)C(=O)N2[C@H]1C(=O)O [Example 11] | 12.5 (≈ 20.7 µM) | 3.13 (≈ 5.18 µM) | – | 12.5 (≈ 20.7 µM) | –
CC1(C)S[C@@H]2[C@H](NC(=O)[C@H](NC(=O)c3cnc4ccccc4c3O)c3ccc(O)c(Cl)c3)C(=O)N2[C@H]1C(=O)O [Example 14] | 6.25 (≈ 10.9 µM) | 6.25 (≈ 10.9 µM) | – | 6.25 (≈ 10.9 µM) | 0.78 (≈ 1.37 µM)
CCOC(=O)Oc1ccc([C@@H](NC(=O)c2cnc3cc([N+](=O)[O-])ccc3c2O)C(=O)N[C@@H]2C(=O)N3[C@@H]2SC(C)(C)[C@@H]3C(=O)O)cc1 [Example 20] | 12.5 (≈ 19.1 µM) | 6.5 (≈ 9.94 µM) | – | 12.5 (≈ 19.1 µM) | 0.78 (≈ 1.19 µM)
CCOC(=O)Oc1ccc([C@@H](NC(=O)c2cnc3cc4c(cc3c2S)OCO4)C(=O)N[C@@H]2C(=O)N3[C@@H]2SC(C)(C)[C@@H]3C(=O)O)cc1 [Example 38] | – | 3.13 (≈ 4.68 µM) | 0.2 (≈ 0.299 µM) | 3.13 (≈ 4.68 µM) | 0.39 (≈ 0.583 µM)
